Laboratory results: ChEMBL document CHEMBL3286103
Active and inactive are the calls of the source. The rule behind the calls is not given here.

Molecular target: T1, Vitamin D3 receptor A (Danio rerio) (UniProt Q9PTN2)
T1 sequence (whole entry): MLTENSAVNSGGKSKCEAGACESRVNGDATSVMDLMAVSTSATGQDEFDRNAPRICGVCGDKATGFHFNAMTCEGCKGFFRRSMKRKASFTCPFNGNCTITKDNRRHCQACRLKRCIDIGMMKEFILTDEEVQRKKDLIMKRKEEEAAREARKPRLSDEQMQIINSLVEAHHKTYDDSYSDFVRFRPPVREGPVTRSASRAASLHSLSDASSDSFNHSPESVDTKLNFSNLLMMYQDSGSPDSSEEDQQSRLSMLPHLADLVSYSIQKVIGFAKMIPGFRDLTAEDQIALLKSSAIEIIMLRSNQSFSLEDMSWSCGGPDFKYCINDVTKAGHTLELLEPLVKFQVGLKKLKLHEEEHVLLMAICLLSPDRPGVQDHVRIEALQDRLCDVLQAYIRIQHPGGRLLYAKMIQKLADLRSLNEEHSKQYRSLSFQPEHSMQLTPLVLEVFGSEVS
Assay: Binding affinity to N-terminal His-tagged zebrafish VDR LBD (154 to 456) at 10 to 20-fold molar excess by ESI-MS analysis

Q: With `C[C@H](CCC(=O)O)[C@H]1CC[C@H]2[C@@H]3CC[C@@H]4C[C@H](O)CC[C@]4(C)[C@H]3CC[C@]12C` as the compound, how does the Activity read?
A: Active
